Data as given in patent US6395747B1, “Remedies for multiple sclerosis” (Kyorin Pharmaceutical Co., Ltd., priority 2001, dated 2002).

Tests used:
[1] = system: EAE model; experiment: Clinical disease ameliorating effect in rat EAE (multiple sclerosis) model; format: in vivo, DA strain rats; conditions: DA rats
[2] = system: EAE model; experiment: Histological evaluation of spinal cord inflammation in rat EAE model; format: in vivo, DA strain rats; conditions: 10 mg/kg once a day through a feeding tube, 12 days after immunization
[3] = 10 mg/kg once a day through a feeding tube

Structure (SMILES): CC(C)C(=O)c1c(C(C)C)nn2ccccc12 [ibudilast]
- clinical disease condition (clinical score) versus control group ([1]; 2 mg/kg once a day through a feeding tube): tendency of amelioration
- body weight decrease [1, 3]: suppressed significantly
- clinical disease condition (clinical score) versus control group [1, 3]: significant amelioration
- disease onset ([1]; ibudilast-treated group, oral once a day): delayed
- histological effect in comparison with the control [2]: significant effect histologically
- average histological score (inflammation, lumbar spinal cord, hematoxylin-eosin) ([2]; score scale 0-4): about 2.0
